# In patent US12428380B2 (PSYLO PTY LTD, priority 2023, dated 2025):
# Assays:
# Assay type in all cases: cell-based
# [1] = biological target: T1, 5-HT2A (Homo sapiens, UniProt P28223); experiment: FLIPR Ca2+ flux functional assay, 5-HT2A (HEK293); details: HEK293 cells expressing 5-HT2A; for Emax: HEK293, agonist activity; for EC50: agonist activity
# T1 construct: host or cells: HEK293
# [2] = biological target: T2, 5-HT2B (Homo sapiens, UniProt P41595); experiment: Activation in a similar Ca2+ flux assay at a single concentration, 5-HT2B; details: head prints 10 µM
# T2 construct: host or cells: CHO-K1
# T2 sequence (P41595 whole entry, species assumed): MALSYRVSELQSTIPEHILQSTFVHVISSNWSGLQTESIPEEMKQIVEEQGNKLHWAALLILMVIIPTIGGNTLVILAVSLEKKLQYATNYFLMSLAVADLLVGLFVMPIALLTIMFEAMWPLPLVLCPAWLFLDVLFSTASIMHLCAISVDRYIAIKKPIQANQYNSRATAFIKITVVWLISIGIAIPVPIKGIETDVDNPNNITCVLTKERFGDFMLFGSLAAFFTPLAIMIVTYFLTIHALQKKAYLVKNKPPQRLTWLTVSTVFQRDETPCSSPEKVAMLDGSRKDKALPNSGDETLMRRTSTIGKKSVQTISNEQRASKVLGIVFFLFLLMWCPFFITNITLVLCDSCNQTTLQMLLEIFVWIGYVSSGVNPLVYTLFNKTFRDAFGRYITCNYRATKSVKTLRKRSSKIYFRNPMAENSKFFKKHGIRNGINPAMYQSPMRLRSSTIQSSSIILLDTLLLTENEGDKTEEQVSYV
# Procedure: Activity at 5-HT2A, 5-HT2B and 5-HT2C receptors was determined using a FLIPR Ca2+ flux assay at WuXi AppTec Co. Ltd. (Hong Kong) Discovery Biology Unit according to their standard protocols. Briefly, stably transfected cells expressing the receptor of interest (HEK293 for 5-HT2A and 5-HT2C; CHO-K1 for 5-HT2B) were grown and plated in a 384 well plate and incubated at 37° C. and 5% CO2 overnight. A 250 mM stock solution of probenecid in FLIPR calcium assay buffer (10 mL) was freshly prepared and combined with a fluorescent dye (Fluo-4 Direct) to give a final assay concentration of 2.5 mM. Reference compounds were 4-fold serially diluted and the screening compounds were 3-fold serially diluted in 100% DMSO for 10 points using Agilent Bravo, and 750 nL was added to a 384 well compound plate using Echo along with 30 μL assay buffer. The fluorescent dye was then added to the assay plate along with assay buffer to a final volume of 40 μL. The cell plate was incubated for 50 min at 37° C. and 5% CO2 and placed into the FLIPR Tetra along with the compound plate. 10 μL of references and compounds were then transferred from the compound plate into the cell plate and the fluorescent signal was read.
# Activation data are provided in a similar assay tested at a single 10 μM concentration.
# [3] = biological target: T3, 5-HT2C (Homo sapiens, UniProt P28335); experiment: FLIPR Ca2+ flux functional assay, 5-HT2C (HEK293); details: HEK293 cells expressing 5-HT2C; for Emax: HEK293, agonist activity; for EC50: agonist activity
# T3 construct: host or cells: HEK293
# T3 sequence (P28335 33-458): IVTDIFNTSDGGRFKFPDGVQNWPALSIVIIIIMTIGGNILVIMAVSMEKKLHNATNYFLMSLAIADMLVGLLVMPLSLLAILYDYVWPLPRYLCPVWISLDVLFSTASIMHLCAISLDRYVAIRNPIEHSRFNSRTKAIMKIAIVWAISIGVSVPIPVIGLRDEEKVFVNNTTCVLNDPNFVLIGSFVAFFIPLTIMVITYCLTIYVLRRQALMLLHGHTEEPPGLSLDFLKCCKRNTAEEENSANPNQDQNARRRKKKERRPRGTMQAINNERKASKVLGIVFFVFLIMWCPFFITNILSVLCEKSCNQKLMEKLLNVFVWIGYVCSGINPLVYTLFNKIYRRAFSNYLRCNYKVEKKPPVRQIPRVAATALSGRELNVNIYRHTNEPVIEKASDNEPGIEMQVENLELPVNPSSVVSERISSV
# T1 sequence (P28223 whole entry): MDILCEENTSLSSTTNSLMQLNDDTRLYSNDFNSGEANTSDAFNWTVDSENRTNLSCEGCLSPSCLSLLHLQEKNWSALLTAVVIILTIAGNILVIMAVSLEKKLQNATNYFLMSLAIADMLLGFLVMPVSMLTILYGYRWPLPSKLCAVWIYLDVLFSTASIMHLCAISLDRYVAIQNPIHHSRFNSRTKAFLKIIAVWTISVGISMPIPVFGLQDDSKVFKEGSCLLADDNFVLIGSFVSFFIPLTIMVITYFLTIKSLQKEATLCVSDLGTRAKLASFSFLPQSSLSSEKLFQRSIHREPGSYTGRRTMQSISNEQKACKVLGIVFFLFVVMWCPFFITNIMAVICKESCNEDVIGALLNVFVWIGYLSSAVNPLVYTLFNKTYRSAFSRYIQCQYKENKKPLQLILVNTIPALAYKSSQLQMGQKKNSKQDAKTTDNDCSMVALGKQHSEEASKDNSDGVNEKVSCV
SMILES,Emax [1] [%],EC50 [1] [nM],5-HT2B % Activation @ 10 µM [2] [%],Emax [3] [%],EC50 [3] [nM]
"COc1c(F)ccc2[nH]nc(CCN(C)C)c12 [Example A1, 2-(5-fluoro-4-methoxy-1H-indazol-3-yl)-N,N-dimethylethan-1-amine]",82,28.3,21,84,8.21
"CCN(C)CCc1n[nH]c2ccc(F)c(OC)c12 [Example A2, N-ethyl-2-(5-fluoro-4-methoxy-1H-indazol-3-yl)-N-methylethan-1-amine]",87,31.5,57,86,15.5
"COc1c(F)ccc2[nH]nc(CCN(C)C(C)C)c12 [Example A3, N-(2-(5-fluoro-4-methoxy-1H-indazol-3-yl)ethyl)-N-methylpropan-2-amine]",76,96.5,17,80,170
"COc1c(F)ccc2[nH]nc(CCN(C)C3CC3)c12 [Example A4, N-(2-(5-fluoro-4-methoxy-1H-indazol-3-yl)ethyl)-N-methylcyclopropanamine]",67,62.7,2,91,17.1
"CCN(C)CCc1n[nH]c2cc(F)c(OC)cc12 [Example A6, N-ethyl-2-(6-fluoro-5-methoxy-1H-indazol-3-yl)-N-methylethan-1-amine]",86,110,40,101,786
"COc1cc2c(CCN(C)C(C)C)n[nH]c2cc1F [Example A7, N-(2-(6-fluoro-5-methoxy-1H-indazol-3-yl)ethyl)-N-methylpropan-2-amine]",63,318,7,67,4180
"COc1cc2c(CCN(C)C3CC3)n[nH]c2cc1F [Example A8, N-(2-(6-fluoro-5-methoxy-1H-indazol-3-yl)ethyl)-N-methylcyclopropanamine]",71,208,6,102,507
"COc1ccc2[nH]nc(CCN(C)C)c2c1F [Example A9, 2-(4-fluoro-5-methoxy-1H-indazol-3-yl)-N,N-dimethylethan-1-amine]",75,809,0,73,1100
"CCN(C)CCc1n[nH]c2ccc(OC)c(F)c12 [Example A10, N-ethyl-2-(4-fluoro-5-methoxy-1H-indazol-3-yl)-N-methylethan-1-amine]",69,831,1,68,2860
"COc1ccc2[nH]nc(CCN(C)C(C)C)c2c1F [Example A11, N-(2-(4-fluoro-5-methoxy-1H-indazol-3-yl)ethyl)-N-methylpropan-2-amine]",64,1380,0,22,> 10000
"CN(C)CCc1n[nH]c2cccc(F)c12 [Example A13, 2-(4-fluoro-1H-indazol-3-yl)-N,N-dimethylethan-1-amine]",55,2050,0,48,944
"CN(C)CCc1n[nH]c2ccc(F)cc12 [Example A17, 2-(5-fluoro-1H-indazol-3-yl)-N,N-dimethylethan-1-amine]",82,167,25,80,34
"CCN(C)CCc1n[nH]c2ccc(F)cc12 [Example A18, N-ethyl-2-(5-fluoro-1H-indazol-3-yl)-N-methylethan-1-amine]",55,264,16,79,128
"CC(C)N(C)CCc1n[nH]c2ccc(F)cc12 [Example A19, N-(2-(5-fluoro-1H-indazol-3-yl)ethyl)-N-methylpropan-2-amine]",25,> 10000,1,69,1520
"CN(CCc1n[nH]c2ccc(F)cc12)C1CC1 [Example A20, N-(2-(5-fluoro-1H-indazol-3-yl)ethyl)-N-methylcyclopropanamine]",45,419,1,83,206
"CCN(C)CCc1n[nH]c2cc(F)cc(F)c12 [Example A29, 2-(4,6-difluoro-1H-indazol-3-yl)-N-ethyl-N-methylethan-1-amine]",33,687,0,70,1480
"COc1ccccc1CNCCc1n[nH]c2cc(F)cc(F)c12 [Example A33, 2-(4,6-difluoro-1H-indazol-3-yl)-N-(2-methoxybenzyl)ethan-1-amine]",91,14.4,23,90,159
"COc1ccccc1CNCCc1n[nH]c2cccc(F)c12 [Example A34, 2-(4-fluoro-1H-indazol-3-yl)-N-(2-methoxybenzyl)ethan-1-amine]",86,55.2,0,84,167
"CN(C)CCc1n[nH]c2c(F)cc(F)cc12 [Example A35, 2-(5,7-difluoro-1H-indazol-3-yl)-N,N-dimethylethan-1-amine]",72,213,1,54,495
"CCN(C)CCc1n[nH]c2c(F)cc(F)cc12 [Example A36, 2-(5,7-difluoro-1H-indazol-3-yl)-N-ethyl-N-methylethan-1-amine]",70,361,0,55,732
"CC(C)N(C)CCc1n[nH]c2c(F)cc(F)cc12 [Example A37, N-(2-(5,7-difluoro-1H-indazol-3-yl)ethyl)-N-methylpropan-2-amine]",57,810,0,11,> 10000
"COc1cc(F)cc2[nH]nc(CCN(C)C)c12 [Example A38, 2-(6-fluoro-4-methoxy-1H-indazol-3-yl)-N,N-dimethylethan-1-amine]",77,75,0,75,203
"COc1cc(F)cc2[nH]nc(CCN3CCC3)c12 [Example A41, 3-(2-(azetidin-1-yl)ethyl)-6-fluoro-4-methoxy-1H-indazole]",78,1080,–,65,1420
"COc1cc(F)cc2[nH]nc(CCN3CCCC3)c12 [Example A42, 6-fluoro-4-methoxy-3-(2-(pyrrolidin-1-yl)ethyl)-1H-indazole]",81,697,–,89,944
"COc1ccc(F)c2[nH]nc(CCN3CCCC3)c12 [Example A48, 7-fluoro-4-methoxy-3-(2-(pyrrolidin-1-yl)ethyl)-1H-indazole]",70,533,–,67,556
"COc1cc(F)c2[nH]nc(CCN3CCCC3)c2c1 [Example A54, 7-fluoro-5-methoxy-3-(2-(pyrrolidin-1-yl)ethyl)-1H-indazole]",75,1380,–,38,3260
"COc1cc2c(CCN3CC4CC4C3)n[nH]c2cc1F (stereo not shown) [Example A61, 3-(2-(3-azabicyclo[3.1.0]hexan-3-yl)ethyl)-6-fluoro-5-methoxy-1H-indazole]",67,1580,–,21,> 10000
"Fc1ccc2[nH]nc(CCN3CCC3)c2c1F [Example A72, 3-(2-(azetidin-1-yl)ethyl)-4,5-difluoro-1H-indazole]",78,1350,–,37,973
"COc1cc2c(CCN3CCC4CC43)nn(C)c2cc1F (stereo not shown) [Example A75, 3-(2-(2-azabicyclo[3.1.0]hexan-2-yl)ethyl)-6-fluoro-5-methoxy-1-methyl-1H-indazole]",77,63.4,–,–,–
